The values that follow are results of earlier work, collected in paper PMC2700308 (Biochemistry, 2009).

The test system of this data set is a protein. As to conditions: calorimetric; ref [33].

For `O=S(=O)(O)O` [sulfate], the “ΔH of binding of sulfate to a protein” value is recorded as 4.3 kcal/mol.
